Results published in patent US9340559B2, “Proteasome inhibitor delanzomib for use in the treatment of lupus” (Cephalon, Inc., priority 2011, dated 2016).

Key:
[1] = system: NZM mice; assay: Antibody secreting cell Elispot (anti-Smith, anti-dsDNA ASC), spleens of NZM mice (Example 3); type: in vivo, mouse
Method: (§1) FIG. 49 depicts the frequency of anti-Smith antibody secreting cells in the spleens of NZM mice. NZM treated mice spleens were processed for splenocytes for ex vivo Elispot assays. Elispot wells were coated with 10 μg/mL of purified smith antigen or ovalbumin protein as a third party background control antigen. Fresh, whole splenocytes were added to each well at 500,000 cells per well in cell culture medium. Cells were incubated overnight at 37° C. Developed wells provided spots that were counted as frequency of ASCs per million splenocytes.
as §1, with “50” for “49”, “anti-dsDNA” for “anti-Smith”, “bovine dsDNA” for “purified smith antigen”
B-cell Elispot components are ordered from MabTech (Nacka Strand, Sweden) and nitrocellulose IP filter plates are ordered from Millipore (Billerica, Mass.). Elispot wells are coated with either purified bovine thymus dsDNA (Sigma), purified bovine Smith antigen (GenWay) or boiled filtered purified chicken chromatin from lysed chicken red blood cells (Rockland, Gilbertsville, Pa.) at 10 μg/mL. Spleens are processed using glass homogenization (frosted slides). Dispersed cell contents are washed in sterile HBSS and RBCs lysed using 1×RBC lysis buffer (BioLegend, Cat #420301). Processed splenocytes are added to each well and are not stimulated with lipopolysaccharide (LPS) to avoid skewing of true ex vivo frequencies of antibody-secreting cell types (ASCs). Anti-mouse pan-IgG is used as a positive control for total IgG producing ASCs and is used to normalize results. Frequencies for each antigen are identified in an initial test phase for each model. For chromatin and total IgG only, 30,000 splenocytes are added to each well; for Smith antigen and dsDNA, 500,000 cells are added to each well. Different numbers of splenocytes are added for different antigens due to saturation limits of spot frequencies per well. B-cell Elispots are incubated overnight at 37° C. To develop each assay, secondary antibody is added to each well, incubated, washed and alkaline phosphatase strepavidin (Jackson ImmunoResearch, West Grove, Pa.) is used as the conjugate; substrate used is BCIP-NBT (MabTech, Cincinnati, Ohio). Plates are developed until spots are visible. All Elispot analyses are performed using an Immunospot C.T.L. scanner and Biospot software (Cellular Technology Ltd., Shaker Heights, Ohio). Results are shown as values from which media and cells only wells are subtracted. Some values are negative due to high background.

[2] = system: IκBα; assay: IκBα accumulation ELISA in kidney 3 hours post dosing, NZM mice (Example 2); type: in vivo, mouse
Method: (§2) Samples are homogenized frozen using a PT 10-35 Polytron homogenizer (VWR, no. 97036-082). […] Spleen proteasome activity is analyzed using 20S fluorogenic assay (Cayman Chemical Company, Cat #10008041, Lot #0414698-1) and modulation of proteasome activity in the kidney is analyzed using the IκBα accumulation ELISA assay (Cell Signaling, Cat #7355, Lot #17).

[3] = system: NZM mice; assay: Antinuclear antibody ELISA (anti-Smith, anti-dsDNA), serum of NZM mice (Example 3)
[4] = system: 20S proteasome; assay: 20S proteasome activity in spleen (ex vivo fluorogenic assay), MRL/lpr mice; details: for PD EOS 20S proteasome, percent change vs vehicle: spleen
[5] = system: NZM mice; assay: Spleen CD38/CD138+ plasma cells by flow cytometry, NZM mice (Example 3)
[6] = system: NZM mice; assay: Renal histopathology blinded scores, NZM mice (Example 3); type: in vivo, mouse
Method: FIG. 52 depicts renal histopathology scores from NZM mice (H&E stained paraffin wax embedded kidney tissues sections from 25 week old mice).
For histological analyses, the left kidney from each animal is removed and fixed in 10% buffered neutral formalin (EMD) for 48 hours on an orbital rocker at 25° C., then washed overnight with running dH2O and stored in 70% ethanol at 4° C. until ready to be processed. Kidney stains used for histological analyses included hematoxylin and eosin (H&E), Periodic Acid Schiff (PAS) and Trichrome stains (Wistar Institute, Philadelphia, Pa.). All 3 stained sections are used by the pathologist for scoring purposes. All histological scoring is performed blinded and by an independent board certified veterinary medical pathologist (Julie Engiles, VMD, DACVP). Multiple stains are used to determine score values. Images in FIG. 39 show worst affected area of section selected blindly by the pathologist.
Kidney IC-GN Scoring Method (Smith, Dong et al. 2007): […]

[7] = system: IκBα; assay: IκBα accumulation ELISA in kidney 3 hours post dose, MRL/lpr mice; type: in vivo, mouse
Method: as §2

[8] = system: MRL/lpr mice; assay: Serum C3 complement ELISA, MRL/lpr mice; type: in vivo, mouse
Description: Mice are tracked on an individual basis.

[9] = system: 20S proteasome; assay: 20S proteasome activity in spleen (ex vivo fluorogenic assay), NZM mice (Example 2)

CC(C)C[C@H](NC(=O)[C@H](Cc1ccccc1)NC(=O)c1cnccn1)B(O)O [bortezomib, reference compound]
anti-dsDNA ASC decrease vs vehicle ([1]; Group 7, ip): 64.7%
anti-smith ASC decrease vs vehicle ([1]; Group 7, ip): 46.3%
anti-dsDNA ASC decrease vs vehicle ([1]; Group 8, sc): 88.9%
anti-smith ASC decrease vs vehicle ([1]; Group 8, sc): 82.4%
PD IκBα accumulation, percent change vs vehicle ([2]; G3 0.3 mg/kg ip, 1× wk): +61%
PD IκBα accumulation, percent change vs vehicle ([2]; G4 0.3 mg/kg ip, 2× wk): +29%
serum anti-dsDNA ANA decrease vs vehicle ([3]; Group 7, ip): 25.8%
serum anti-smith ANA decrease vs vehicle ([3]; Group 7, ip): 66.7%
serum anti-dsDNA ANA decrease vs vehicle ([3]; Group 8, sc): 55.4%
serum anti-smith ANA decrease vs vehicle ([3]; Group 8, sc): 85.7%
spleen 20S proteasome function decrease vs vehicle ([4]; Group 4): 40%
spleen 20S proteasome function decrease vs vehicle ([4]; Group 5): 41%
PD EOS 20S proteasome, percent change vs vehicle ([4]; G4: 0.5 mg/kg iv, 1× wk): −40%
PD EOS 20S proteasome, percent change vs vehicle ([4]; G5: 0.3 mg/kg iv, 2× wk): −41%
spleen CD138/CD38 double positive plasma B cells decrease vs vehicle ([5]; Group 7, ip): 35.4%
spleen CD138/CD38 double positive plasma B cells decrease vs vehicle ([5]; Group 8, sc): 57.8%
combined average renal histopathology blinded score decrease vs vehicle ([6]; Group 7, ip): 19.4%
combined average renal histopathology blinded score decrease vs vehicle ([6]; Group 8, sc): 43.6%
PD EOS IκBα accumulation, percent change vs vehicle ([7]; G4: 0.5 mg/kg iv, 1× wk): +340%
PD EOS IκBα accumulation, percent change vs vehicle ([7]; G5: 0.3 mg/kg iv, 2× wk): +99%
serum C3 relative to vehicle ([8]; bortezomib treatment groups): did not exhibit a significant increase in serum C3
PD 20S proteasome activity, percent change vs vehicle ([9]; G3 0.3 mg/kg ip, 1× wk): −14%
PD 20S proteasome activity, percent change vs vehicle ([9]; G4 0.3 mg/kg ip, 2× wk): −27%

CC(C)C[C@H](NC(=O)[C@@H](NC(=O)c1cccc(-c2ccccc2)n1)[C@@H](C)O)B(O)O [COMPOUND A, [(1R)-1-[[(2S,3R)-3-hydroxy-2-[6-phenyl-pyridine-2-carbonyl)amino]-1-oxobutyl]amino]-3-methylbutylboronic acid]
anti-sdDNA ASC decrease vs vehicle ([1]; Group 1 (regimen: Table 42)): 97.9%
anti-smith ASC decrease vs vehicle ([1]; Group 1 (regimen: Table 42)): 98.7%
anti-sdDNA ASC decrease vs vehicle ([1]; Group 2 (regimen: Table 42)): 96.4%
anti-smith ASC decrease vs vehicle ([1]; Group 2 (regimen: Table 42)): 96.6%
anti-sdDNA ASC decrease vs vehicle ([1]; Group 4 (regimen: Table 42)): 100.7%
anti-smith ASC decrease vs vehicle ([1]; Group 4 (regimen: Table 42)): 98.6%
anti-sdDNA ASC decrease vs vehicle ([1]; Group 5 (regimen: Table 42)): 95.9%
anti-smith ASC decrease vs vehicle ([1]; Group 5 (regimen: Table 42)): 97.6%
PD IκBα accumulation, percent change vs vehicle ([2]; G1 3 mg/kg ip, 1× wk): +33%
p, kidney IκBα accumulation 3 hours post dosing vs G9 Vehicle 1× wk ip ([2]; G2 3 mg/kg 2× wk ip): p < 0.05
PD IκBα accumulation, percent change vs vehicle ([2]; G2 3 mg/kg ip, 2× wk): +60%
kidney IκBα increase above vehicle ([2]; twice weekly administration): ~40%
serum anti-dsDNA ANA decrease vs vehicle ([3]; Group 1 (regimen: Table 42)): 79.6%
serum anti-smith ANA decrease vs vehicle ([3]; Group 1 (regimen: Table 42)): 93.8%
serum anti-dsDNA ANA decrease vs vehicle ([3]; Group 2 (regimen: Table 42)): 69.2%
serum anti-smith ANA decrease vs vehicle ([3]; Group 2 (regimen: Table 42)): 85.0%
serum anti-dsDNA ANA decrease vs vehicle ([3]; Group 4 (regimen: Table 42)): 84.1%
serum anti-smith ANA decrease vs vehicle ([3]; Group 4 (regimen: Table 42)): 94.5%
serum anti-dsDNA ANA decrease vs vehicle ([3]; Group 5 (regimen: Table 42)): 81.0%
serum anti-smith ANA decrease vs vehicle ([3]; Group 5 (regimen: Table 42)): 92.4%
spleen 20S proteasome function decrease vs vehicle ([4]; Group 1): 40%
spleen 20S proteasome function decrease vs vehicle ([4]; Group 2): 45%
spleen 20S proteasome function decrease vs vehicle ([4]; Group 3): 41%
PD EOS 20S proteasome, percent change vs vehicle ([4]; G1: 3 mg/kg iv, 1× wk): −40%
PD EOS 20S proteasome, percent change vs vehicle ([4]; G2: 3 mg/kg iv, 2× wk): −45%
PD EOS 20S proteasome, percent change vs vehicle ([4]; G3: 10 mg/kg po, 2× wk): −41%
spleen CD138/CD38 double positive plasma B cells decrease vs vehicle ([5]; Group 1 (regimen: Table 42)): 56.6%
spleen CD138/CD38 double positive plasma B cells decrease vs vehicle ([5]; Group 2 (regimen: Table 42)): 38.1%
spleen CD138/CD38 double positive plasma B cells decrease vs vehicle ([5]; Group 4 (regimen: Table 42)): 49.8%
spleen CD138/CD38 double positive plasma B cells decrease vs vehicle ([5]; Group 5 (regimen: Table 42)): 24.3%
spleen CD138/CD38 double positive plasma B cells decrease vs vehicle ([5]; Group 6 (regimen: Table 42)): 47.8%
combined average renal histopathology blinded score decrease vs vehicle ([6]; Group 1 (regimen: Table 42)): 53%
combined average renal histopathology blinded score decrease vs vehicle ([6]; Group 2 (regimen: Table 42)): 43.6%
combined average renal histopathology blinded score decrease vs vehicle ([6]; Group 3 (regimen: Table 42)): 18.9%
combined average renal histopathology blinded score decrease vs vehicle ([6]; Group 4 (regimen: Table 42)): 48.7%
combined average renal histopathology blinded score decrease vs vehicle ([6]; Group 5 (regimen: Table 42)): 40.5%
PD EOS IκBα accumulation, percent change vs vehicle ([7]; G1: 3 mg/kg iv, 1× wk): +537%
PD EOS IκBα accumulation, percent change vs vehicle ([7]; G2: 3 mg/kg iv, 2× wk): +227%
PD EOS IκBα accumulation, percent change vs vehicle ([7]; G3: 10 mg/kg po, 2× wk): +166%
serum C3 concentration increase over vehicle ([8]; treated orally, day 99): 128%
spleen 20S proteasome inhibition relative to vehicle ([9]; COMPOUND A groups): ~40%
PD 20S proteasome activity, percent change vs vehicle ([9]; G1 3 mg/kg ip, 1× wk): −42%
PD 20S proteasome activity, percent change vs vehicle ([9]; G2 3 mg/kg ip, 2× wk): −41%
